What was measured:
[1] = target: Replicase polyprotein 1ab (Severe acute respiratory syndrome coronavirus 2) (UniProt P0DTD1); experiment: Inhibition of SARS-CoV-2 RdRp in HEK-293T cells at 10 uM measured after 24 hrs relative to control; type: cell-based
[2] = Cytotoxicity against HEK293T cells assessed as inhibition of cell growth measured after 48 hrs by CCK8 assay; type: toxicity, cell-based, HEK-293T; conditions: human
[3] = Antiviral activity against SARS-CoV-2 infected in HEK293T cells assessed as inhibition of SARS-CoV-2 RdRp in the presence of coelenterazine-h incubated for 24 hrs by Gaussia luciferase reporter assay; type: functional, cell-based; conditions: Homo sapiens, HEK-293T
[4] = Selectivity index, ratio of CC50 for cytotoxicity against HEK293T cells assessed as inhibition of cell growth to EC50 for antiviral activity against SARS-CoV-2 infected in HEK293T cells assessed as inhibition of SARS-CoV-2 RdRp; type: toxicity, cell-based; conditions: human, read-out: Ratio CC50/EC50
[5] = target: T1, Replicase polyprotein 1ab (Severe acute respiratory syndrome coronavirus 2, UniProt P0DTD1); experiment: Inhibition of his tagged SARS-CoV-2 nsp12 in HEK-293T cells cotransfected with pCoV-GLuc incubated for 24 hrs in the presence of coelenterazine-h by Gaussia luciferase reporter assay; type: cell-based
[6] = target: T1, Replicase polyprotein 1ab; experiment: Inhibition of SARS-CoV-2 nsp14 in HEK-293T cells cotransfected with pCoV-GLuc incubated for 24 hrs in the presence of coelenterazine-h by Gaussia luciferase reporter assay; type: cell-based
[7] = target: Replicase polyprotein 1ab (Severe acute respiratory syndrome coronavirus 2) (UniProt P0DTD1); experiment: Inhibition of SARS-CoV-2 RdRp mediated RNA synthesis in HEK-293T cells cotransfected with pCoV-GLuc and pCMV6-nsp12/nsp7/nsp8 assessed as reduction in plus strand RNA level by measuring GLuc RNA level for 24 hrs in the presence of coelenterazine-h by Gaussia luciferase reporter assay; type: cell-based; conditions: dose 2-10 µM
[8] = target: Replicase polyprotein 1ab (Severe acute respiratory syndrome coronavirus 2) (UniProt P0DTD1); experiment: Inhibition of SARS-CoV-2 RdRp mediated RNA synthesis in HEK-293T cells cotransfected with pCoV-GLuc and pCMV6-nsp12/nsp7/nsp8 assessed as reduction in minus strand RNA level by measuring GLuc RNA level for 24 hrs in the presence of coelenterazine-h by Gaussia luciferase reporter assay; type: cell-based; conditions: dose 2-10 µM

| Structure (SMILES) | inhibition [1] [%] | CC50 at 48 h [2] [µM] | EC50 [3] [µM] | selectivity ratio [4] | EC50 [5] [µM] | EC50 [6] [µM] | inhibition [7] | inhibition [8] |
| --- | --- | --- | --- | --- | --- | --- | --- | --- |
| Nc1ccc(/N=N/c2ccccc2)c(NC(=O)[C@@H]2CCCN2)n1 | 72.9 | > 100 | 3.78 | – | – | – | – | – |
| Nc1ccc(/N=N/c2ccccc2)c(NC(=O)[C@@H](N)Cc2ccccc2)n1 | 56.7 | > 100 | 8.77 | – | – | – | – | – |
| CSCC[C@H](NC(=O)OC(C)(C)C)C(=O)Nc1nc(N)ccc1/N=N/c1ccccc1 | 83 | > 100 | 1.33 | 75.2 | 1.33 | 1.38 | Dose-dependent-effect | Dose-dependent-effect |
| Nc1ccc(/N=N/c2ccc(Cl)cc2)c(N)n1 | 64.5 | > 100 | 7.64 | – | – | – | – | – |
| Nc1ccc(/N=N/c2ccc(C(F)(F)F)cc2)c(N)n1 | 74.9 | > 100 | 6.32 | – | – | – | – | – |
| CC(C)(C)OC(=O)N[C@@H](Cc1c[nH]c2ccccc12)C(=O)Nc1nc(N)ccc1/N=N/c1ccccc1 | 79.8 | 79.2 | 3.79 | – | – | – | – | – |
| C[C@H](NC(=O)OC(C)(C)C)C(=O)Nc1nc(N)ccc1/N=N/c1ccccc1 | 86 | > 100 | 1.42 | 70.4 | 1.42 | 1.73 | Dose-dependent-effect | Dose-dependent-effect |
| Nc1ccc(/N=N/c2ccc([N+](=O)[O-])cc2)c(N)n1 | 45.8 | – | – | – | – | – | – | – |
| Nc1nc(N)c(/N=N/c2ccccc2)cc1/N=N/c1ccccc1 | 46 | – | – | – | – | – | – | – |
| COc1ccc(/N=N/c2ccc(N)nc2N)cc1 | 48 | – | – | – | – | – | – | – |
| Nc1ccc(/N=N/c2ccc(Br)cc2)c(N)n1 | 71.8 | > 100 | 8.61 | – | – | – | – | – |
| Cc1ccc(/N=N/c2ccc(N)nc2N)cc1 | 59.1 | > 100 | 8.59 | – | – | – | – | – |
| CC(C)(C)OC(=O)NCC(=O)Nc1nc(N)ccc1/N=N/c1ccccc1 | 77.4 | > 100 | 1.7 | – | – | – | – | – |
| CC(C)(C)OC(=O)N[C@@H](Cc1ccccc1)C(=O)Nc1nc(N)ccc1/N=N/c1ccccc1 | 79.8 | > 100 | 2.64 | – | – | – | – | – |
| Nc1cc(-c2ccccc2)c(/N=N/c2ccccc2)c(N)n1 | 65.6 | > 100 | 8.26 | – | – | – | – | – |

Source: ChEMBL document CHEMBL6109081, “Discovery and optimization of phenazopyridine hydrochloride as novel SARS-CoV-2 RdRp inhibitors” (Eur J Med Chem, 2025)
